Patent publication US20150038435A1, “N-TERMINALLY MODIFIED OLIGOPEPTIDES AND USES THEREOF” (Novo Nordisk A/S, priority 2012, published 2015)
Starred links: 1 amine or outer side, 2 acyl side, 3 side chain; linkers in the order of their positions; H or OH if unused. Non-standard residues stand in square brackets, D forms with d. Primed or numbered codes have the meaning given here. No end group written: not given here. *: point of attachment. γGlu = O=C(O)[C@H](CCC(=O)[*:2])N[*:1]; βAsp = O=C(O)[C@H](CC(=O)[*:2])N[*:1]; Stearoyl = CCCCCCCCCCCCCCCCCC(=O)*; Palmitoyl = CCCCCCCCCCCCCCCC(=O)*; Myristoyl = CCCCCCCCCCCCCC(=O)*; Lauroyl = CCCCCCCCCCCC(=O)*; PEG12′ = not defined here

Legend:
[1] = test system: Chymotrypsin; assay: Inhibition of enzymatic degradation of a model GLP-1 (FRET substrate) by chymotrypsin; format: biochemical; conditions: for EC50: read-out: EC50 Chymotrypsin (0.001 mg/ml), 0.001 mg/ml chymotrypsin, 37° C., ± standard error if at least 3 measurements; for Slope of the initial increase in fluorescence obtained during incubation with 0.001 mg/ml Chymotrypsin: compound 0.1 mM, buffer containing 8% DMSO
Description: (§1) The use of Förster resonance energy transfer (FRET), also known as fluorescence resonance energy transfer, substrates to monitor activity of proteolytic enzymes is known in the field (for example Anjuere, F. et al. (1993). Biochem J 291 (Pt 3), 869-73).
(§2) Model GLP-1 analogue was designed as FRET substrate by incorporation of 7-Methoxycoumarin-4-acetic acid (MCA) group as the donor chromophore and dinitrophenol group (DNP) as the acceptor chromophore.
(§3) An assay following the increase in fluorescence as a function of time was established in 96 well format using Varioskan Flash Multimode Meter (Thermo Scientific). Each well contained 70 μl of Dulbecco's phosphate buffer saline (Invitrogen catalogue #14190-094), 10 μl of 100 μM GLP-1 FRET substrate, 10 μl of N-terminally acylated peptide or oligopeptide of the invention in varying concentration and 10 μl of a stock solution of an enzyme (chymotrypsin, trypsin, elastase, etc.). The incubations were performed at 37° C. Fluorescence (320 nm excitation wavelength and 405 nm emission wavelength) was measured immediately after addition of the enzyme to the 96 well plate and also every minute for at least the next 30 minutes. The concentration of the enzyme was optimized to allow determination of slopes for the time course of initial fluorescence increase with and without the N-terminally acylated peptides or oligopeptides of the invention. The slopes were determined by linear regression of the linear part of the fluorescence trace (for example, the first 10 min of the reaction). Each assay was performed in duplicate and average of the two traces was included in the calculations. The relative effect of N-terminally acylated peptide or oligopeptides of the invention on enzymatic degradation of GLP-1 FRET substrate was obtained by comparison of the slopes achieved by the same concentration of the N-terminally acylated peptide or oligopeptides. […] This was done by plotting the slopes achieved with different concentrations of the N-terminally acylated peptide or oligopeptides of the invention as a function of their concentrations and fitting the experimental results using, for example, sigmoidal logistic regression (2 parameters, Sigma Plot v 11). Inhibition constants for the interaction between the N-terminally acylated peptide or oligopeptides of the invention and proteolytic enzymes were also obtained by performing the assay described above with varying concentrations of the inhibitor and substrate and analyzing the results, for example, by double reciprocal transformation as known to the person skilled in the art and described for example in Hubalek, F. et al., J. Med. Chem. 47, 1760-1766 (2004).
(§4) The EC50 was determined for the following compounds. EC50±standard error is reported if the results of at least 3 independent measurements were available.

[2] = test system: Trypsin; assay: Inhibition of enzymatic degradation of a model GLP-1 (FRET substrate) by trypsin; format: biochemical; conditions: for EC50: read-out: EC50 Trypsin (0.001 mg/ml), 0.001 mg/ml trypsin, 37° C.; for Slope of the initial increase in fluorescence obtained during incubation with 0.001 mg/ml Trypsin: compound 0.1 mM, buffer containing 8% DMSO
Description: as §1, §2, §3, §4

Substance	EC50 [1]	EC50 [2]	Slope of the initial increase in fluorescence obtained during incubation with 0.001 mg/ml Chymotrypsin [1]	Slope of the initial increase in fluorescence obtained during incubation with 0.001 mg/ml Trypsin [2]
N-tetradecanoyl-Thr-Ala-Ala-Pro-Phe-OH [Example 173]	51 µM	93 µM	–	–
N-tetradecanoyl-Leu-Ala-Ala-Pro-Tyr-OH [Example 159]	35 µM	122 µM	–	–
N-tetradecanoyl-Glu-Ala-Pro-Phe-OH (Myristoyl-EAPF-OH; SMILES CCCCCCCCCCCCCC(=O)N[C@@H](CCC(=O)O)C(=O)N[C@@H](C)C(=O)N1CCC[C@H]1C(=O)N[C@@H](Cc1ccccc1)C(=O)O) [Example 152]	293 µM	–	–	–
N-tetradecanoyl-γGlu-Ala-Pro-D-Trp-OH [Example 177]	95 µM	200 µM	–	–
N-icosanoyl-γGlu-Ala-Pro-Phe-OH (icosanoyl-[γGlu]APF-OH) [Example 151]	9 µM	13 µM	–	–
N-dodecanoyl-Ile-Ala-Ala-Pro-Tyr-OH [Example 40]	–	–	0.41	1.31
N-tetradecanoyl-γGlu-Ala-Pro-D-Phe-OH [Example 168]	377 µM	–	–	–
N-hexadecanoyl-Glu-Ala-Ala-Pro-D-Phe-OH [Example 144]	40 µM	72 µM	–	–
N-tetradecanoyl-γGlu-D-Ala-D-Pro-D-Phe-OH [Example 183]	386 µM	–	–	–
N-hexadecanoyl-γGlu-Ala-Ala-Pro-Phe-OH [Example 32]	29 ± 4 µM	66 µM	–	–
N-hexadecanoyl-γGlu-D-Ala-D-Ala-D-Pro-D-Phe-OH [Example 157]	57 µM	88 µM	–	–
N-tetradecanoyl-Lys-Ala-Arg-Pro-Phe-OH [Example 193]	90 µM	169 µM	–	–
N-tetradecanoyl-His-Ala-Ala-Pro-Phe-OH [Example 166]	61 µM	69 µM	–	–
N-tetradecanoyl-γGlu-Ala-Pro-Phe-OH [Example 181]	300 µM	–	–	–
N-tetradecanoyl-γGlu-γGlu-Pro-Phe-OH [Example 170]	> 500 µM	–	–	–
N-dodecanoyl-Gly-Ala-Pro-Tyr-OH [Example 37]	–	–	0.66	1.78
N-tetradecanoyl-Leu-Ala-Ala-Pro-Tyr-OH [Example 142]	20 µM	37 µM	–	–
N-hexadecanoyl-γGlu-Ala-Pro-Phe-OH (Palmitoyl-[γGlu]APF-OH; SMILES CCCCCCCCCCCCCCCC(=O)N[C@@H](CCC(=O)N[C@@H](C)C(=O)N1CCC[C@H]1C(=O)N[C@@H](Cc1ccccc1)C(=O)O)C(=O)O) [Example 149]	48 µM	57 µM	–	–
N-tetradecanoyl-bAsp-Ala-Pro-Phe-OH (Myristoyl-[βAsp]APF-OH; SMILES CCCCCCCCCCCCCC(=O)N[C@@H](CC(=O)N[C@@H](C)C(=O)N1CCC[C@H]1C(=O)N[C@@H](Cc1ccccc1)C(=O)O)C(=O)O) [Example 165]	154 µM	120 µM	–	–
N-tetradecanoyl-Thr-Ala-Ala-Pro-Tyr-OH [Example 158]	58 µM	112 µM	–	–
N-tetradecanoyl-γGlu-D-Ala-D-Ala-D-Pro-D-Phe-OH [Example 156]	428 µM	> 500 µM	–	–
N-tetradecanoyl-γGlu-Ala-Arg-Pro-Phe-OH [Example 179]	84 µM	80 µM	–	–
N-icosanoyl-γGlu-Ala-Ala-Pro-Phe-OH [Example 161]	4 µM	7 µM	–	–
N-tetradecanoyl-Glu-Ala-Ala-Pro-D-Phe-OH [Example 174]	211 µM	–	–	–
N-hexadecanoyl-Ala-Ala-Pro-Phe-OH (Palmitoyl-AAPF-OH) [Example 29]	23 ± 2 µM	> 500 µM	–	–
N-tetradecanoyl-γGlu-Ala-Pro-Trp-OH (Myristoyl-[γGlu]APW-OH; SMILES CCCCCCCCCCCCCC(=O)N[C@@H](CCC(=O)N[C@@H](C)C(=O)N1CCC[C@H]1C(=O)N[C@@H](Cc1c[nH]c2ccccc12)C(=O)O)C(=O)O) [Example 176]	105 µM	63 µM	–	–
N-hexadecanoyl-γGlu-D-Ala-D-Pro-D-Phe-OH [Example 182]	67 µM	33 µM	–	–
N-tetradecanoyl-γGlu-γGlu-Phe-Phe-OH [Example 171]	452 µM	–	–	–

Substance	EC50 [1]	EC50 [2]	Slope of the initial increase in fluorescence obtained during incubation with 0.001 mg/ml Chymotrypsin [1]	Slope of the initial increase in fluorescence obtained during incubation with 0.001 mg/ml Trypsin [2]
N-dodecanoyl-Leu-Thr-Trp-Pro-Tyr-OH [Example 154]	27 µM	151 µM	–	–
N-dodecanoyl-γGlu-His-Ala-Ala-Pro-Tyr-OH [Example 190]	> 500 µM	–	–	–
N-octadecanoyl-γGlu-Ala-Pro-Phe-OH (Stearoyl-[γGlu]APF-OH; SMILES CCCCCCCCCCCCCCCCCC(=O)N[C@@H](CCC(=O)N[C@@H](C)C(=O)N1CCC[C@H]1C(=O)N[C@@H](Cc1ccccc1)C(=O)O)C(=O)O) [Example 150]	13 µM	22 µM	–	–
N-tetradecanoyl-Ala-Ala-Ala-Ala-Pro-Phe-OH [Example 140]	28 µM	374 µM	–	–
N-dodecanoyl-Ala-Ala-Ala-Ala-Ala-Pro-Phe-OH [Example 141]	57 µM	187 µM	–	–
N-dodecanoyl-Lys-Ala-Ala-Pro-Tyr-OH [Example 44]	–	–	0.00	0.96
N-octadecanoyl-γGlu-Ala-Ala-Pro-Phe-OH [Example 160]	17 µM	16 µM	–	–
N-tetradecanoyl-Glu-Ala-Ala-Pro-Phe-OH [Example 163] (Myristoyl-EAAPF-OH; SMILES CCCCCCCCCCCCCC(=O)N[C@@H](CCC(=O)O)C(=O)N[C@@H](C)C(=O)N[C@@H](C)C(=O)N1CCC[C@H]1C(=O)N[C@@H](Cc1ccccc1)C(=O)O)	94 µM	271 µM	–	–
N-tetradecanoyl-D-His-D-Ala-D-Arg-D-Pro-D-Phe-OH [Example 195]	17 µM	7 µM	–	–
N-hexadecanoyl-Thr-Ala-Ala-Pro-Phe-OH [Example 175]	17 µM	31 µM	–	–
PEG12-Ala-Ala-Pro-Phe-OH ([PEG12′]AAPF-OH) [Example 167]	> 500 µM	–	–	–
N-tetradecanoyl-bAsp-Ala-Ala-Pro-Phe-OH [Example 164]	54 µM	343 µM	–	–
N-tetradecanoyl-Ala-Ala-Pro-D-Phe-OH [Example 185]	73 µM	44 µM	–	–
N-hexadecanoyl-Glu-Ala-Ala-Pro-D-Phe-OH [Example 186]	56 µM	–	–	–
N-tetradecanoyl-Leu-betaAla-Ala-Pro-DPhe-OH [Example 145]	83 µM	43 µM	–	–
N-tetradecanoyl-Glu-Ala-Ala-Pro-Trp-OH [Example 187]	14 µM	130 µM	–	–
N-hexadecanoyl-γGlu-DAla-DPro-DPhe-OH [Example 155]	56 µM	76 µM	–	–
N-tetradecanoyl-eLys-His-Ala-Arg-Pro-Phe-OH [Example 196]	6 µM	75 µM	–	–
N-tetradecanoy-γGlu-His-Ala-Ala-Pro-Tyr-OH [Example 191]	136 µM	177 µM	–	–
N-tetradecanoyl-γGlu-γGlu-Ala-Pro-Phe-OH [Example 169]	287 µM	–	–	–
N-dodecanoyl-γGlu-Ala-Ala-Pro-Arg-Pro-OH [Example 27]	> 500 µM	–	–	–
N-tetradecanoyl-γGlu-His-Ala-Arg-Pro-Phe-OH [Example 194]	19 µM	84 µM	–	–
N-tetradecanoyl-D-Ala-D-Ala-D-Pro-D-Phe-OH [Example 184]	69 µM	38 µM	–	–
N-tetradecanoyl-Glu-Ala-Ala-Pro-Phe-OH [Example 162]	94 µM	58 µM	–	–
N-tetradecanoyl-Glu-Ala-Ala-Pro-Trp-OH [Example 143]	14 µM	388 µM	–	–
N-dodecanoyl-Ala-Ala-Pro-His-OH (Lauroyl-AAPH-OH; SMILES CCCCCCCCCCCC(=O)N[C@@H](C)C(=O)N[C@@H](C)C(=O)N1CCC[C@H]1C(=O)N[C@@H](Cc1c[nH]cn1)C(=O)O) [Example 180]	> 500 µM	–	–	–
N-dodecanoyl-Ala-Pro-Phe-OH [Example 35]	182 µM	–	–	–
